We go through four compounds from article PMC6151429 (Molecules : A Journal of Synthetic Chemistry and Natural …, 2017).

Test [1] concerns the target T1, Electric eel acetylcholinesterase (AChE) (Electrophorus electricus, UniProt O42275).
T1 construct: purchased Sigma-Aldrich Co. (St. Louis, MO, USA)
Nature of the test: biochemical. The conditions noted are these: for IC50: electric eel AChE, mean ± SEM of triplicate experiments; for SI, selective index (BChE/AChE): calculated from IC50 of BChE/AChE. From the text:
(§1) Electric eel acetylcholinesterase (AChE, EC3.1.1.7), horse serum butyrylcholinesterase (BChE, EC 3.1.1.8), acetylthiocholine iodide (ACh), butyrylthioline chloride (BCh), 5,5′-dithobis [2-nitrobenzoic acid] […] The BACE1 FREF assay kit (β-secretase) was purchased from Pan Vera Co. (Madison, WI, USA). ONOO^− was purchased from Molecular Probes Cayman (Ann Arbor, MI, USA). All other chemicals and solvents used were purchased from E. Merck, Fluka, or Sigma- Aldrich, unless otherwise stated.
The inhibitory activity of the isolated coumarins toward ChE was measured using the spectrophotometric method developed by Ellman et al.. ACh and BCh were used as substrates to assay the inhibition of AChE and BChE, respectively. Each reaction mixture consisted of 140 µL sodium phosphate buffer (pH 8.0), 20 µL of test sample solution, and 20 µL of either AChE or BChE solution, which were then combined and incubated for 15 min at room temperature. […] Reactions were initiated upon addition of 10 µL of DTNB and 10 µL of either ACh or BCh. Enzymatic hydrolysis, mediated by AChE or BChE, was monitored according to the formation of yellow 5-thio-2-nitrobenzoate anions at 412 nm for 15 min, which were generated by the reaction of DTNB with thiocholine released from ACh or BCh. All reactions were performed in 96-well plates in triplicate, and recorded using a microplate spectrophotometer (Molecular Devices, Sunnyvale, CA, USA).

The target in test [2] is T2, human recombinant BACE1 (Homo sapiens, UniProt P56817).
T2 construct: purchased PanVera Co. (Madison, WI, USA)
Nature of the test: In vitro BACE1 FRET enzyme assay. Format: biochemical. Here is the method: A BACE1 fluorescence resonance energy transfer (FRET) assay kit (β-secretase, human recombinant) was purchased from PanVera Co. (Madison, WI, USA). The assay was carried out according to the provided manual with slight modifications, as described in a previous study.

Test [3] relates to ONOO−-mediated tyrosine nitration of BSA. Nature of the test: Inhibition of ONOO−-mediated protein tyrosine nitration (Western blot, 3-nitrotyrosine antibody). The class given is biochemical. The conditions noted are these: pretreatment at 12.5–100 μM. Here is the method: To determine the inhibitory effect of 2 against ONOO^−-induced tyrosine nitration, Western blot analysis was performed using a 3-nitrotyrosine antibody.
Figure 5 Effect of 2 on nitration of BSA by ONOO^−. A mixture of the compound and BSA was incubated at 25 °C for 10 min. After incubation of ONOO^− at 25 °C for 10 min, reactants were resolved by electrophoresis in a 10% SDS-polyacrylamide gel.
We evaluated ONOO^−-mediated protein tyrosine nitration using the method of Ali et al., with slight modifications. The tested concentration range of 2 was 12.5–100 µM.
(A western blot detects proteins with antibodies after separation by electrophoresis.)

In test [4] the target is T2, human recombinant BACE1. The test can be described thus: Kinetics of BACE1 inhibition (Lineweaver–Burk and Dixon plots). The class given is biochemical. The conditions noted are these: for BACE1 inhibition type: determined using Dixon and Lineweaver–Burk plots; for Ki: determined using a Dixon plot, substrate 750, 375, 250 nM, read-out: BACE1 inhibition constant (Ki). Here is the method:
Complementary kinetic methods were employed: Lineweaver–Burk and Dixon plots. The mechanism of BACE1 inhibition was evaluated by monitoring the effects of different concentrations of substrate (750, 375, and 250 nM). The test concentrations of 2 in BACE1 inhibition kinetic experiments were 0, 0.4, 2.0, and 10 µM, while those for 3 were 0, 25, 50, and 100 µM. Inhibition constants (Ki) were determined by interpreting the Dixon plot, where the value on the x-axis represents Ki.

Test [5] deals with T3, horse serum butyrylcholinesterase (BChE) (Equus caballus, UniProt P81908).
T3 construct: horse serum butyrylcholinesterase (BChE, EC 3.1.1.8); purchased Sigma-Aldrich Co. (St. Louis, MO, USA); host or cells: horse serum
Nature of the test: In vitro ChE enzyme assay (Ellman), BChE. Format: biochemical. The conditions noted are these: mean ± SEM of triplicate experiments.
Text: as §1
The inhibitory activity of the isolated coumarins toward ChE was measured using the spectrophotometric method developed by Ellman et al.. ACh and BCh were used as substrates to assay the inhibition of AChE and BChE, respectively. Each reaction mixture consisted of 140 µL sodium phosphate buffer (pH 8.0), 20 µL of test sample solution, and 20 µL of either AChE or BChE solution, which were then combined and incubated for 15 min at room temperature. […] Enzymatic hydrolysis, mediated by AChE or BChE, was monitored according to the formation of yellow 5-thio-2-nitrobenzoate anions at 412 nm for 15 min, which were generated by the reaction of DTNB with thiocholine released from ACh or BCh. All reactions were performed in 96-well plates in triplicate, and recorded using a microplate spectrophotometer (Molecular Devices, Sunnyvale, CA, USA).
In general terms: Ellman's reagent forms a yellow product with free thiols.

Where [6] appears, read: human recombinant BACE1, mean ± SEM of triplicate experiments, read-out: IC50 BACE1.

Where “and” joins values, the source holds several entries; their conditions need not be identical. Equal entries are not always repeated. Where two headings read alike, the source gives them in different places. A value given as a limit tells only on which side of the number the result lay.

T2 sequence (P56817 46-501): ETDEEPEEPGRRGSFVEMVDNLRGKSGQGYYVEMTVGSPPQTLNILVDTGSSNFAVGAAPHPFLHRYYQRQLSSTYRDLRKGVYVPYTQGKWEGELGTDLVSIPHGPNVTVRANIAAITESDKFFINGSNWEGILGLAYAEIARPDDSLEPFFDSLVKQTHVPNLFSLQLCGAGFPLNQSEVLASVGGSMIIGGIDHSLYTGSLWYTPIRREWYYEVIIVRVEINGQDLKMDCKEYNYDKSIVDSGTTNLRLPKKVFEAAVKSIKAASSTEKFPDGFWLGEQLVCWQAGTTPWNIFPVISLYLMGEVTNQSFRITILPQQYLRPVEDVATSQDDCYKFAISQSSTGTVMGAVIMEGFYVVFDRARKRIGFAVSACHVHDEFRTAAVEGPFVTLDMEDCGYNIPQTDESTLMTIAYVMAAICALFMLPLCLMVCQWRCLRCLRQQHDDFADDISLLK
T3 sequence (P81908 whole entry): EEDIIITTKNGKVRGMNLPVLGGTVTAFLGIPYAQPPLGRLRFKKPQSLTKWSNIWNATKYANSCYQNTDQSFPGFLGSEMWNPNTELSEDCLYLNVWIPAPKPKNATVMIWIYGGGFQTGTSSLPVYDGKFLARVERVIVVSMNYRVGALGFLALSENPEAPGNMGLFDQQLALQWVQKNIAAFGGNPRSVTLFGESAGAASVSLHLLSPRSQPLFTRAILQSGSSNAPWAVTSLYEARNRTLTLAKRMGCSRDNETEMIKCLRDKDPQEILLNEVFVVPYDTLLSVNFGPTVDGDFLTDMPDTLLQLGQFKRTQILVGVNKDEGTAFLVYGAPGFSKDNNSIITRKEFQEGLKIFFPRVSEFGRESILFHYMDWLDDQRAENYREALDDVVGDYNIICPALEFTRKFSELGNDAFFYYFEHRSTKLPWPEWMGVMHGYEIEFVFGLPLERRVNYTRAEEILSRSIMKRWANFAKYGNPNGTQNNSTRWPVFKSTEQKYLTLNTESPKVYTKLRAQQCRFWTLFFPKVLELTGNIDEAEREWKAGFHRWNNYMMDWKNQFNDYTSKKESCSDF
T1 sequence (O42275 24-633): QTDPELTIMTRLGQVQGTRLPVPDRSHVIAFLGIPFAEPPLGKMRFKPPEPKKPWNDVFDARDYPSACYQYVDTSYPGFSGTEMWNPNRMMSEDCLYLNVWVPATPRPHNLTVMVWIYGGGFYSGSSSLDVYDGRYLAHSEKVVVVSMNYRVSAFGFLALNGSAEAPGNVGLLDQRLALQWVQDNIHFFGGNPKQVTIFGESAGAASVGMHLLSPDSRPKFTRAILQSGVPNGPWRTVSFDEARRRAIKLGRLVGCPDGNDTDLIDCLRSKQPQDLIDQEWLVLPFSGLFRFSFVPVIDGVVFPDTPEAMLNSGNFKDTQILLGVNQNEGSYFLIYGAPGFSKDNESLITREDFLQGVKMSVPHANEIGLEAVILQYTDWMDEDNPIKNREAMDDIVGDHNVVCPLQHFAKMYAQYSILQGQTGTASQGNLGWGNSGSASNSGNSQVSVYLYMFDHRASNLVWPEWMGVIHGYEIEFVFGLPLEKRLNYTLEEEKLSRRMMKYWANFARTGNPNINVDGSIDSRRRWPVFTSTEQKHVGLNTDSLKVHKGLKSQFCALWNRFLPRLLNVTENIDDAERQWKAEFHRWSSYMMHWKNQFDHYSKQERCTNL

As to `COc1ccc2cc3[n+](cc2c1OC)CCc1cc2c(cc1-3)OCO2` [Berberine, berberine, reference compound], the IC50 (usually the concentration needed to halve the response being measured) in test [1] (IC50 AChE) was less than 0.32 µM.
On to `O=c1ccc2ccc(O)cc2o1` [Compound 1, umbelliferone], for which the half-maximal inhibitory concentration (IC50) on human recombinant BACE1 [2] is 169 ± 2.17 µM.
In the case of `O=Cc1cc2ccc(=O)oc2cc1O` [Compound 2, 6-formyl umbelliferone], the “SI, selective index (BChE/AChE)” value in test [1] is 1.67. Moreover, the IC50 in test [1] (read-out: IC50 AChE) is 16.7 to 19.1 µM and 16.7 µM; at human recombinant BACE1 [2] (setting [6]), 1.31 ± 0.01 µM; in test [5], 27.9 to 87.7 µM and 27.9 µM. Moreover, the “Inhibition of ONOO−-mediated tyrosine nitration” value in test [3] is recorded as “significant dose-dependent inhibition”. The BACE1 inhibition type result at human recombinant BACE1 [4] is “noncompetitive-type inhibition”. Further, at human recombinant BACE1 [4], the Ki (usually a dissociation constant, usually derived from enzyme kinetics or from competition with a known ligand) came out at 2.27 µM.
Consider `O=Cc1c(O)ccc2ccc(=O)oc12` [Compound 3, 8-formyl umbelliferone], for which, in test [1], the “SI, selective index (BChE/AChE)” value is reported as 4.58. The IC50 was 16.7 to 19.1 µM and 19.1 µM in test [1] (read-out: IC50 AChE); 39.82 ± 0.31 µM at human recombinant BACE1 [2] (setting [6]); 27.9 to 87.7 µM and 87.7 µM in test [5]. Besides, the BACE1 inhibition type result at human recombinant BACE1 [4] is “noncompetitive-type inhibition”. Also, on human recombinant BACE1 [4], the Ki is 22.2 µM.
